# In patent US20230348369A1 (Cytokinetics, Inc., priority 2020, published 2023):
# Like-named read-outs stand apart in the source and are kept apart here.
# Biological target: human NAMPT (Homo sapiens, UniProt P43490)
# Test: Human recombinant enzyme assay (NMN fluorescence biochemical assay, activation of NAMPT)
# Protocol: Compounds described herein were assayed for their ability to stimulate the synthesis of nicotinamide mononucleotide (NMN) by the enzyme NAMPT. The human recombinant enzyme assay measures the activation of the enzyme activity by compounds using recombinant enzyme and substrates in a buffered cell-free system. The assay conditions closely mimic cellular environments. Dose responses were measured using an assay to detect the formation of nicotinamide mono-nucleotide. All experiments were performed in the 384-well format. […] Enzyme reactions were initiated with the addition of 10 μL of a solution containing the substrates. The final assay conditions were as follows: 6 nM human NAMPT, 2.5 mM ATP, 20 μM PRPP and 150 μM nicotinamide in 50 mM HEPES, pH 7.2, 1 mM DTT, 1 mM CHAPS 50 mM NaCl, 100 mM MgCl2. Following an incubation of 60 min at ambient temperature, 10 μL of 20% acetophenone in DMSO was added, followed by 10 μL of 2 M KOH and 40 μL of formic acid. The plates were read for fluorescence (Excitation/Emission=355 nm/460 nm) using an EnVision plate reader after 40 mins of incubation at ambient temperature.
# [1] = Table A, human recombinant NAMPT, NMN formation, 60 min, read-out: EC50 Human
# [2] = Table A, human recombinant NAMPT, NMN formation, 60 min
# Sequence of human NAMPT (P43490 whole entry): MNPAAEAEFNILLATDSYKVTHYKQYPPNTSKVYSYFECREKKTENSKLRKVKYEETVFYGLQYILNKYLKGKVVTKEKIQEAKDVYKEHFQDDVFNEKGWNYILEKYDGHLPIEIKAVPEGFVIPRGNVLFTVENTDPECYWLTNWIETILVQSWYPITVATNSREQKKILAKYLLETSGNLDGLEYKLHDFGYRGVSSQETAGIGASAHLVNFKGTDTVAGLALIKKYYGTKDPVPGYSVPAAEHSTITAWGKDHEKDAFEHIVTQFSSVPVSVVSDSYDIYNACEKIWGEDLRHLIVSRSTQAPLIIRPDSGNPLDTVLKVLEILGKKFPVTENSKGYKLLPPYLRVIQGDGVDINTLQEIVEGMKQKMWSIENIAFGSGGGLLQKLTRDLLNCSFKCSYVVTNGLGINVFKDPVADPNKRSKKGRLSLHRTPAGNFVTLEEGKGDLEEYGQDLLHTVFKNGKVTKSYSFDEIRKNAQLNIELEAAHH
EC50 [1] [µM],AC1.4 Human [2] [µM],SMILES,EC50 [µM]
5.1,–,CC(C)(C)OC(=O)NC1CC2(CC(NC(=O)NCc3ccc(Cl)cc3)C2)C1 (racemic) [Compound 8],–
–,–,"CC(C)(O)CN1CCN(C(=O)[C@H]2C[C@]3(C[C@H](NC(=O)NCc4ccc(Cl)cc4)C3)C2)CC1 (single isomer, unassigned) [Compound 182]",20.5
2.7,1.3,"COc1ccc(CNC(=O)NC2CC3(C2)CC(C(=O)NC2CCCc4ccc(F)cc42)C3)cc1 (stereo in doubt) [Compound 97, (S)-N-(7-fluoro-1,2,3,4-tetrahydronaphthalen-1-yl)-6-(3-(4-methoxybenzyl)ureido)spiro[3.3]heptane-2-carboxamide]",–
7,3.0,"COc1ccc(CNC(=O)NC2CC3(C2)CC(C(=O)NC2CCCc4cc(F)ccc42)C3)cc1 (stereo in doubt) [Compound 98, (S)-N-(6-fluoro-1,2,3,4-tetrahydronaphthalen-1-yl)-6-(3-(4-methoxybenzyl)ureido)spiro[3.3]heptane-2-carboxamide]",–
3.9,5.1,"COc1ccc(CNC(=O)NC2CC3(C2)CC(C(=O)NC2CCCc4ccc(F)cc42)C3)cc1 (stereo in doubt) [Compound 99, (R)-N-(7-fluoro-1,2,3,4-tetrahydronaphthalen-1-yl)-6-(3-(4-methoxybenzyl)ureido)spiro[3.3]heptane-2-carboxamide]",–
10.3,8.5,"COc1ccc(CNC(=O)NC2CC3(C2)CC(C(=O)NC2CCCc4ccccc42)C3)cc1 (stereo in doubt) [Compound 100, (R)-6-(3-(4-methoxybenzyl)ureido)-N-(1,2,3,4-tetrahydronaphthalen-1-yl)spiro[3.3]heptane-2-carboxamide]",–
0.8,0.1,"O=C(NCCCCC1CCN(C(=O)c2ccccc2)CC1)NCc1ccncc1 [Compound 1, 1-(4-(1-benzoylpiperidin-4-yl)butyl)-3-(pyridin-4-ylmethyl)urea]",–
25.9,–,"CC(C)(C)OC(=O)NC1CC2(CC(NC(=O)NCc3ccc(C(N)=O)cc3)C2)C1 (centres unmarked) [Compound 2, tert-butyl (6-(3-(4-carbamoylbenzyl)ureido)spiro[3.3]heptan-2-yl)carbamate]",–
41.4,17.5,"CC1(C)CCC(NC(=O)NCc2ccc(C(N)=O)cc2)CC1 [Compound 3, 4-((3-(4,4-dimethylcyclohexyl)ureido)methyl)benzamide]",–
–,9.9,"NC(=O)c1ccc(CNC(=O)NC2CC(c3ccccc3)C2)cc1 (centres unmarked) [Compound 4, 4-((3-(3-phenylcyclobutyl)ureido)methyl)benzamide]",–
48.6,–,"CC(C)(C)OC(=O)N1CCC(NC(=O)NCc2ccc(C(N)=O)cc2)CC1 [Compound 5, tert-butyl 4-(3-(4-carbamoylbenzyl)ureido)piperidine-1-carboxylate]",–
26.8,4.5,"CC(C)(C)OC(=O)NC1CC2(CC(NC(=O)NCc3ccncc3)C2)C1 (centres unmarked) [Compound 6, tert-butyl (6-(3-(pyridin-4-ylmethyl)ureido)spiro[3.3]heptan-2-yl)carbamate]",–
47,3.4,"CC(C)(C)OC(=O)NC1CC2(CC(NC(=O)NCc3ccc(CO)cc3)C2)C1 (centres unmarked) [Compound 9, tert-butyl (6-(3-(4-(hydroxymethyl)benzyl)ureido)spiro[3.3]heptan-2-yl)carbamate]",–
50.7,5.8,"CC(C)(C)OC(=O)NC1CC2(CC(NC(=O)NCc3cn[nH]c3)C2)C1 (centres unmarked) [Compound 10, tert-butyl (6-(3-((1H-pyrazol-4-yl)methyl)ureido)spiro[3.3]heptan-2-yl)carbamate]",–
–,11.5,"CC(C)(C)OC(=O)NC1CC2(CC(NC(=O)NCc3cnco3)C2)C1 (centres unmarked) [Compound 11, tert-butyl (6-(3-(oxazol-5-ylmethyl)ureido)spiro[3.3]heptan-2-yl)carbamate]",–
40,–,"CC(C)(C)OC(=O)NC1CCC(NC(=O)NCc2ccc(C(N)=O)cc2)CC1 (centres unmarked) [Compound 12, tert-butyl (4-(3-(4-carbamoylbenzyl)ureido)cyclohexyl)carbamate]",–

EC50 [1] [µM],AC1.4 Human [2] [µM],SMILES,EC50 [µM]
–,17.5,"NC(=O)c1ccc(CNC(=O)NC2CCN(C(=O)c3ccccc3)CC2)cc1 [Compound 13, 4-((3-(1-benzoylpiperidin-4-yl)ureido)methyl)benzamide]",–
17.7,10.4,"O=C(NCc1ccncc1)NC1CC2(C1)CC(NC(=O)c1ccccc1)C2 (centres unmarked) [Compound 15, N-(6-(3-(pyridin-4-ylmethyl)ureido)spiro[3.3]heptan-2-yl)benzamide]",–
50.5,17.6,"O=C(NCc1cn[nH]c1)NC1CC2(C1)CC(NC(=O)c1ccccc1)C2 (centres unmarked) [Compound 17, N-(6-(3-((1H-pyrazol-4-yl)methyl)ureido)spiro[3.3]heptan-2-yl)benzamide]",–
60.2,18.9,"COc1ccc(CNC(=O)NC2CC3(C2)CC(NC(=O)c2ccccc2)C3)cc1 (centres unmarked) [Compound 18, N-(6-(3-(4-methoxybenzyl)ureido)spiro[3.3]heptan-2-yl)benzamide]",–
45,8.0,"NC(=O)c1ccc(CNC(=O)N[C@H]2C[C@H](C(=O)NCc3ccccc3)C2)cc1 [Compound 21, 4-((3-((1r,3r)-3-(benzylcarbamoyl)cyclobutyl)ureido)methyl)benzamide]",–
27.4,5.0,"CC(C)(C)OC(=O)N1CCC2(CC1)CC2CNC(=O)NCc1ccncc1 (centres unmarked) [Compound 25, tert-butyl 1-((3-(pyridin-4-ylmethyl)ureido)methyl)-6-azaspiro[2.5]octane-6-carboxylate]",–
42.5,–,"COc1ccc(CNC(=O)NCC2CC23CCN(C(=O)OC(C)(C)C)CC3)cc1 (centres unmarked) [Compound 28, tert-butyl 1-((3-(4-methoxybenzyl)ureido)methyl)-6-azaspiro[2.5]octane-6-carboxylate]",–
37.9,–,"CC(C)(C)OC(=O)N1CCC2(CC1)CC2CNC(=O)NCc1cnco1 (centres unmarked) [Compound 30, tert-butyl 1-((3-(oxazol-5-ylmethyl)ureido)methyl)-6-azaspiro[2.5]octane-6-carboxylate]",–
40.1,3.2,"CC(C)(C)OC(=O)N1CCC2(CC1)CC2CNC(=O)NCc1cn[nH]c1 (centres unmarked) [Compound 31, tert-butyl 1-((3-((1H-pyrazol-4-yl)methyl)ureido)methyl)-6-azaspiro[2.5]octane-6-carboxylate]",–
37.7,12.1,"NC(=O)c1ccc(CNC(=O)NC2CC3(CC(NCc4ccccn4)C3)C2)cc1 (centres unmarked) [Compound 34, 4-((3-(6-((pyridin-2-ylmethyl)amino)spiro[3.3]heptan-2-yl)ureido)methyl)benzamide]",–
40.2,15.4,"COC(=O)C1CC2(CC(NC(=O)NCc3ccc(OC)cc3)C2)C1 (centres unmarked) [Compound 35, Methyl 6-(3-(4-methoxybenzyl)ureido)spiro[3.3]heptane-2-carboxylate]",–
35.4,9.8,"COc1ccc(CNC(=O)NCCCCCNC(=O)OC(C)(C)C)cc1 [Compound 36, tert-butyl (5-(3-(4-methoxybenzyl)ureido)pentyl)carbamate]",–
58.9,4.2,"COc1ccc(CNC(=O)NC2CC3(C2)CN(C(=O)OC(C)(C)C)C3)cc1 [Compound 37, tert-butyl 6-(3-(4-methoxybenzyl)ureido)-2-azaspiro[3.3]heptane-2-carboxylate]",–
41.9,5.6,"COc1ccc(CNC(=O)NC2CC3(C2)CN(C(=O)Cc2ccccc2Cl)C3)cc1 [Compound 39, 1-(2-(2-(2-chlorophenyl)acetyl)-2-azaspiro[3.3]heptan-6-yl)-3-(4-methoxybenzyl)urea]",–
24,17.2,"COc1ccc(CNC(=O)NC2CC3(C2)CN(C(=O)Cc2ccccc2OC)C3)cc1 [Compound 40, 1-(4-methoxybenzyl)-3-(2-(2-(2-methoxyphenyl)acetyl)-2-azaspiro[3.3]heptan-6-yl)urea]",–
53.5,5.0,"COc1ccc(CNC(=O)NC2CC3(C2)CN(C(=O)Cc2ccccc2C(F)(F)F)C3)cc1 [Compound 41, 1-(4-methoxybenzyl)-3-(2-(2-(2-(trifluoromethyl)phenyl)acetyl)-2-azaspiro[3.3]heptan-6-yl)urea]",–

SMILES,EC50 [1] [µM],AC1.4 Human [2] [µM],EC50 [µM]
"COC(=O)[C@H]1C[C@@]2(C[C@H](NC(=O)NCc3ccc(Cl)cc3)C2)C1 (single isomer, unassigned) [Compound 201, methyl 6-(3-(4-chlorobenzyl)ureido)spiro[3.3]heptane-2-carboxylate]",–,6.7,22.2
NC(=O)c1ccc(CNC(=O)NC2CC3(CC(NCc4ccccc4)C3)C2)cc1 (centres unmarked) [Compound 24],29.1,8.1,–
"NC(=O)c1ccc(CNC(=O)NC2CC3(C2)CC(Nc2ccccn2)C3)cc1 (centres unmarked) [Compound 26, 4-((3-(6-(pyridin-2-ylamino)spiro[3.3]heptan-2-yl)ureido)methyl)benzamide]",–,2.0,16.7
"COc1ccc(CNC(=O)NC2CC3(C2)CN(C(=O)Cc2ccccc2F)C3)cc1 [Compound 38, 1-(2-(2-(2-fluorophenyl)acetyl)-2-azaspiro[3.3]heptan-6-yl)-3-(4-methoxybenzyl)urea]",–,13.7,43.7
